Test results published in patent publication US6706663B2, “Herbicidal 3-heterocyclic substituted benzisothiazole and benzisoxazole compounds” (Wyeth, priority 2000, dated 2004).

Columns and labels:
[1] = tested on: ABUTH (Abutilon theophrasti); assay: Postemergence herbicidal evaluation; assay type: in vivo, Medic.; conditions: postemergence
Summary of the method: (§1)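 Seedlings grown about two weeks in flats, sprayed, then kept under standard greenhouse care. Rated visually 4–5 weeks after treatment on a 0–9 scale (stand, vigour, malformation, size, chlorosis, overall appearance) relative to untreated control; repeat tests averaged.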

[2] = tested on: AMBEL (Ambrosia artemisifolia); assay: Postemergence herbicidal evaluation; assay type: in vivo, L.; conditions: postemergence
Summary of the method: as §1

[3] = tested on: CASOB (Cassia obtusifolia); assay: Postemergence herbicidal evaluation; assay type: in vivo, L.; conditions: postemergence
Summary of the method: as §1

[4] = tested on: CHEAL (Chenopodium album); assay: Postemergence herbicidal evaluation; assay type: in vivo, L.; conditions: postemergence
Summary of the method: as §1

[5] = tested on: IPOHE (Ipomoea hederacea); assay: Postemergence herbicidal evaluation; assay type: in vivo, (L.) Jacq.; conditions: postemergence
Summary of the method: as §1

[6] = tested on: GLXMAW (Soybean, Williams); assay: Postemergence herbicidal evaluation; assay type: in vivo, Glycine max, (L.) Merr. cv Williams; conditions: postemergence
Summary of the method: as §1

ORYSAT (Rice, Tebonnet) [7] = assay: Postemergence herbicidal evaluation; assay type: in vivo, Oryza sativa, (L.) Tebonnet; conditions: postemergence
Summary of the method: as §1

[8] = tested on: ABUTH (Abutilon theophrasti); assay: Preemergence herbicidal evaluation; assay type: in vivo, Medic.; conditions: rated 4-5 weeks after treatment
[9] = tested on: AMBEL (Ambrosia artemisifolia); assay: Preemergence herbicidal evaluation; assay type: in vivo, L.; conditions: rated 4-5 weeks after treatment
Summary of the method: (§2)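 Applied before emergence as an aqueous acetone spray over seeded soil. Read-out: 0–9 visual rating covering plant stand, vigor, size, chlorosis, malformation and overall appearance compared with control, taken 4–5 weeks after spraying.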

[10] = tested on: CASOB (Cassia obtusifolia); assay: Preemergence herbicidal evaluation; assay type: in vivo, L.; conditions: rated 4-5 weeks after treatment
Summary of the method: as §2

[11] = tested on: CHEAL (Chenopodium album); assay: Preemergence herbicidal evaluation; assay type: in vivo, L.; conditions: rated 4-5 weeks after treatment
Summary of the method: as §2

[12] = tested on: IPOHE (Ipomoea hederacea); assay: Preemergence herbicidal evaluation; assay type: in vivo, (L.) Jacq.; conditions: rated 4-5 weeks after treatment
[13] = tested on: ECHCG (Echinochloa crus-galli); assay: Preemergence herbicidal evaluation; assay type: in vivo, (L.) Beau; conditions: rated 4-5 weeks after treatment
Summary of the method: as §2

SETVI (Setaria viridis) = assay: Preemergence herbicidal evaluation; assay type: in vivo, (L.) Beau; conditions: rated 4-5 weeks after treatment
Summary of the method: as §2

[14] = tested on: GLXMAW (Soybean, Williams); assay: Preemergence herbicidal evaluation; assay type: in vivo, Glycine max, (L.) Merr. cv Williams; conditions: rated 4-5 weeks after treatment
[15] = tested on: TRZAWR (Wheat, Winter, cv Riband); assay: Preemergence herbicidal evaluation; assay type: in vivo, Triticum aestivum; conditions: rated 4-5 weeks after treatment
Summary of the method: as §2

ZEAMX (Corn, Field) = assay: Preemergence herbicidal evaluation; assay type: in vivo, Zea mays, L.; conditions: rated 4-5 weeks after treatment
CYPIR (Cyperus iria) = assay: Flooded paddy, preemergence weed control; assay type: in vivo; conditions: rated 3-4 weeks after treatment, 0-9 rating scale
Summary of the method: (§3)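 Flooded silt loam pots, seeds in upper 0.5 cm, water held 1.5–3 cm deep; greenhouse; visual 0-9 score vs control.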

[16] = tested on: MOOVA (Monochoria vaginalis); assay: Flooded paddy, preemergence weed control; assay type: in vivo, Presl.; conditions: rated 3-4 weeks after treatment, 0-9 rating scale
Summary of the method: as §3

ORYSAT (Rice, Tebonnet) [17] = assay: Flooded paddy, post-transplant rice tolerance; assay type: in vivo, Oryza sativa, (L.) Tebonnet; conditions: flooded paddy, post-transplant rice, rated 3-4 weeks after treatment, 0-9 rating scale
Summary of the method: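 Visual 0–9 injury rating against a control, covering stand, vigor, malformation, size, chlorosis and overall appearance. Treatment was post-transplant onto flooded containers (water 1.5–3 cm deep, silt loam) holding two ten-day-old cv. Tebonnet seedlings, maintained on greenhouse benches.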

## Cn1c(C(F)(F)F)cc(=O)n(-c2ccc3snc(-c4sccc4CBr)c3c2)c1=O [Compound 80, 3-[3-[3-(bromomethyl)-2-thienyl]-1,2-benzisothiazol-5-yl]-1-methyl-6-(trifluoromethyl)uracil]
[1]; rate 0.0320 kg/ha
  ABUTH herbicidal rating: 6.0
[1]; rate 0.0620 kg/ha
  ABUTH herbicidal rating: 9.0
[2]; rate 0.0320 kg/ha
  AMBEL herbicidal rating: 7.0
[2]; rate 0.0620 kg/ha
  AMBEL herbicidal rating: 9.0
[3]; rate 0.0320 kg/ha
  CASOB herbicidal rating: 5.0
[3]; rate 0.0620 kg/ha
  CASOB herbicidal rating: 5.0
[4]; rate 0.0320 kg/ha
  CHEAL herbicidal rating: 9.0
[4]; rate 0.0620 kg/ha
  CHEAL herbicidal rating: 9.0
[5]; rate 0.0320 kg/ha
  IPOHE herbicidal rating: 9.0
[5]; rate 0.0620 kg/ha
  IPOHE herbicidal rating: 9.0
[6]; rate 0.0320 kg/ha
  GLXMAW herbicidal rating: 5.0
[6]; rate 0.0620 kg/ha
  GLXMAW herbicidal rating: 7.0
ORYSAT (Rice, Tebonnet) [7]; rate 0.0320 kg/ha
  ORYSAT herbicidal rating: 3.5
ORYSAT (Rice, Tebonnet) [7]; rate 0.0620 kg/ha
  ORYSAT herbicidal rating: 3.5
[8]; Rate 0.0620 kg/ha
  Preemergence herbicidal rating ABUTH: 4.0
[8]; Rate 0.1250 kg/ha
  Preemergence herbicidal rating ABUTH: 9.0
[8]; Rate 0.2500 kg/ha
  Preemergence herbicidal rating ABUTH: 9.0
[9]; Rate 0.0620 kg/ha
  Preemergence herbicidal rating AMBEL: 5.0
[9]; Rate 0.1250 kg/ha
  Preemergence herbicidal rating AMBEL: 9.0
[9]; Rate 0.2500 kg/ha
  Preemergence herbicidal rating AMBEL: 9.0
[10]; Rate 0.0620 kg/ha
  Preemergence herbicidal rating CASOB: 0.0
[10]; Rate 0.1250 kg/ha
  Preemergence herbicidal rating CASOB: 0.0
[10]; Rate 0.2500 kg/ha
  Preemergence herbicidal rating CASOB: 1.5
[11]; Rate 0.0620 kg/ha
  Preemergence herbicidal rating CHEAL: 5.5
[11]; Rate 0.1250 kg/ha
  Preemergence herbicidal rating CHEAL: 7.5
[11]; Rate 0.2500 kg/ha
  Preemergence herbicidal rating CHEAL: 9.0
[12]; Rate 0.0620 kg/ha
  Preemergence herbicidal rating IPOHE: 0.5
[12]; Rate 0.1250 kg/ha
  Preemergence herbicidal rating IPOHE: 2.0
[12]; Rate 0.2500 kg/ha
  Preemergence herbicidal rating IPOHE: 4.0
[13]; Rate 0.0620 kg/ha
  Preemergence herbicidal rating ECHCG: 0.5
[13]; Rate 0.1250 kg/ha
  Preemergence herbicidal rating ECHCG: 2.0
[13]; Rate 0.2500 kg/ha
  Preemergence herbicidal rating ECHCG: 6.5
SETVI (Setaria viridis); Rate 0.0620 kg/ha
  Preemergence herbicidal rating SETVI: 1.5
SETVI (Setaria viridis); Rate 0.1250 kg/ha
  Preemergence herbicidal rating SETVI: 4.5
SETVI (Setaria viridis); Rate 0.2500 kg/ha
  Preemergence herbicidal rating SETVI: 7.5
[14]; Rate 0.0620 kg/ha
  Preemergence herbicidal rating GLXMAW: 0.5
[14]; Rate 0.1250 kg/ha
  Preemergence herbicidal rating GLXMAW: 0.5
[14]; Rate 0.2500 kg/ha
  Preemergence herbicidal rating GLXMAW: 6.0
[15]; Rate 0.0620 kg/ha
  Preemergence herbicidal rating TRZAWR: 0.0
[15]; Rate 0.1250 kg/ha
  Preemergence herbicidal rating TRZAWR: 0.0
[15]; Rate 0.2500 kg/ha
  Preemergence herbicidal rating TRZAWR: 2.0
ZEAMX (Corn, Field); Rate 0.0620 kg/ha
  Preemergence herbicidal rating ZEAMX: 0.5
ZEAMX (Corn, Field); Rate 0.1250 kg/ha
  Preemergence herbicidal rating ZEAMX: 1.5
ZEAMX (Corn, Field); Rate 0.2500 kg/ha
  Preemergence herbicidal rating ZEAMX: 2.5
CYPIR (Cyperus iria); rate 0.0080 kg/ha
  herbicidal rating, CYPIR: 0.0
CYPIR (Cyperus iria); rate 0.0320 kg/ha
  herbicidal rating, CYPIR: 4.5
CYPIR (Cyperus iria); rate 0.1250 kg/ha
  herbicidal rating, CYPIR: 9.0
[16]; rate 0.0080 kg/ha
  herbicidal rating, MOOVA: 0.0
[16]; rate 0.0320 kg/ha
  herbicidal rating, MOOVA: 9.0
[16]; rate 0.1250 kg/ha
  herbicidal rating, MOOVA: 9.0
ORYSAT (Rice, Tebonnet) [17]; rate 0.0080 kg/ha
  herbicidal rating, ORYSAT (rice tolerance): 2.5
ORYSAT (Rice, Tebonnet) [17]; rate 0.0320 kg/ha
  herbicidal rating, ORYSAT (rice tolerance): 5.5
ORYSAT (Rice, Tebonnet) [17]; rate 0.1250 kg/ha
  herbicidal rating, ORYSAT (rice tolerance): 8.0

## Cn1c(C(F)(F)F)cc(=O)n(-c2ccc3snc(C4OC(C)(C)C(C)(C)O4)c3c2)c1=O [Compound 56, 1-methyl-3-[3-(4,4,5,5-tetramethyl-1,3-dioxolan-2-yl)-1,2-benzisothiazol-5-yl]-6-(trifluoromethyl)uracil]
[1]; rate 0.0320 kg/ha
  ABUTH herbicidal rating: 9.0
[1]; rate 0.0620 kg/ha
  ABUTH herbicidal rating: 9.0
[2]; rate 0.0320 kg/ha
  AMBEL herbicidal rating: 9.0
[2]; rate 0.0620 kg/ha
  AMBEL herbicidal rating: 9.0
[3]; rate 0.0320 kg/ha
  CASOB herbicidal rating: 3.0
[3]; rate 0.0620 kg/ha
  CASOB herbicidal rating: 7.0
[4]; rate 0.0320 kg/ha
  CHEAL herbicidal rating: 7.0
[4]; rate 0.0620 kg/ha
  CHEAL herbicidal rating: 9.0
[5]; rate 0.0320 kg/ha
  IPOHE herbicidal rating: 9.0
[5]; rate 0.0620 kg/ha
  IPOHE herbicidal rating: 9.0
[6]; rate 0.0320 kg/ha
  GLXMAW herbicidal rating: 6.0
[6]; rate 0.0620 kg/ha
  GLXMAW herbicidal rating: 6.5
ORYSAT (Rice, Tebonnet) [7]; rate 0.0320 kg/ha
  ORYSAT herbicidal rating: 3.5
ORYSAT (Rice, Tebonnet) [7]; rate 0.0620 kg/ha
  ORYSAT herbicidal rating: 4.5
[8]; Rate 0.0620 kg/ha
  Preemergence herbicidal rating ABUTH: 9.0
[8]; Rate 0.1250 kg/ha
  Preemergence herbicidal rating ABUTH: 9.0
[8]; Rate 0.2500 kg/ha
  Preemergence herbicidal rating ABUTH: 9.0
[9]; Rate 0.0620 kg/ha
  Preemergence herbicidal rating AMBEL: 9.0
[9]; Rate 0.1250 kg/ha
  Preemergence herbicidal rating AMBEL: 9.0
[9]; Rate 0.2500 kg/ha
  Preemergence herbicidal rating AMBEL: 9.0
[10]; Rate 0.0620 kg/ha
  Preemergence herbicidal rating CASOB: 4.5
[10]; Rate 0.1250 kg/ha
  Preemergence herbicidal rating CASOB: 5.5
[10]; Rate 0.2500 kg/ha
  Preemergence herbicidal rating CASOB: 9.0
[11]; Rate 0.0620 kg/ha
  Preemergence herbicidal rating CHEAL: 9.0
[11]; Rate 0.1250 kg/ha
  Preemergence herbicidal rating CHEAL: 9.0
[11]; Rate 0.2500 kg/ha
  Preemergence herbicidal rating CHEAL: 9.0
[12]; Rate 0.0620 kg/ha
  Preemergence herbicidal rating IPOHE: 7.5
[12]; Rate 0.1250 kg/ha
  Preemergence herbicidal rating IPOHE: 7.5
[12]; Rate 0.2500 kg/ha
  Preemergence herbicidal rating IPOHE: 9.0
[13]; Rate 0.0620 kg/ha
  Preemergence herbicidal rating ECHCG: 9.0
[13]; Rate 0.1250 kg/ha
  Preemergence herbicidal rating ECHCG: 9.0
[13]; Rate 0.2500 kg/ha
  Preemergence herbicidal rating ECHCG: 9.0
SETVI (Setaria viridis); Rate 0.0620 kg/ha
  Preemergence herbicidal rating SETVI: 8.5
SETVI (Setaria viridis); Rate 0.1250 kg/ha
  Preemergence herbicidal rating SETVI: 9.0
SETVI (Setaria viridis); Rate 0.2500 kg/ha
  Preemergence herbicidal rating SETVI: 9.0
[14]; Rate 0.0620 kg/ha
  Preemergence herbicidal rating GLXMAW: 7.5
[14]; Rate 0.1250 kg/ha
  Preemergence herbicidal rating GLXMAW: 9.0
[14]; Rate 0.2500 kg/ha
  Preemergence herbicidal rating GLXMAW: 9.0
[15]; Rate 0.0620 kg/ha
  Preemergence herbicidal rating TRZAWR: 6.0
[15]; Rate 0.1250 kg/ha
  Preemergence herbicidal rating TRZAWR: 6.0
[15]; Rate 0.2500 kg/ha
  Preemergence herbicidal rating TRZAWR: 7.0
ZEAMX (Corn, Field); Rate 0.0620 kg/ha
  Preemergence herbicidal rating ZEAMX: 7.0
ZEAMX (Corn, Field); Rate 0.1250 kg/ha
  Preemergence herbicidal rating ZEAMX: 7.0
ZEAMX (Corn, Field); Rate 0.2500 kg/ha
  Preemergence herbicidal rating ZEAMX: 8.0
CYPIR (Cyperus iria); rate 0.0080 kg/ha
  herbicidal rating, CYPIR: 6.0
CYPIR (Cyperus iria); rate 0.0320 kg/ha
  herbicidal rating, CYPIR: 8.0
CYPIR (Cyperus iria); rate 0.1250 kg/ha
  herbicidal rating, CYPIR: 9.0
[16]; rate 0.0080 kg/ha
  herbicidal rating, MOOVA: 9.0
[16]; rate 0.0320 kg/ha
  herbicidal rating, MOOVA: 9.0
[16]; rate 0.1250 kg/ha
  herbicidal rating, MOOVA: 9.0
ORYSAT (Rice, Tebonnet) [17]; rate 0.0080 kg/ha
  herbicidal rating, ORYSAT (rice tolerance): 1.0
ORYSAT (Rice, Tebonnet) [17]; rate 0.0320 kg/ha
  herbicidal rating, ORYSAT (rice tolerance): 4.3
ORYSAT (Rice, Tebonnet) [17]; rate 0.1250 kg/ha
  herbicidal rating, ORYSAT (rice tolerance): 8.0
